The results in this text go back to patent US11103488B2, “Methods of treating autoimmune, respiratory and inflammatory disorders by inhalation of roflumilast N-oxide” (Incozen Therapeutics Pvt. Ltd., priority 2013, dated 2021).

Test [1] relates to neutrophil infiltration (LPS-induced neutrophilia in BALF). Kind of test: Lipopolysaccharide (LPS) induced pulmonary neutrophilia. In kind it is in vivo, female Sprague-Dawley rat. As to conditions: for ED50: Rattus norvegicus, Neutrophil, inhaled or nasal; for Percent inhibition in neutrophil infiltration: intratracheal dry powder, 30 minutes before LPS. As to the method: Roflumilast was prepared as a suspension in a suitable vehicle for oral administration. For intratracheal administration, roflumilast or roflumilast N-oxide was prepared as a dry powder mixture and administered by using a dry powder Insufflator (Penn-Century, USA) Animals were anaesthetized with ketamine and LPS solution was administered intratracheally one hour after roflumilast (at a dose of 0.3, 1, 3, and 10 mg/kg orally), or 30 minutes after roflumilast (at a dose of 10, 30 and 100 μg/kg i.t) or roflumilast N-oxide administration (at a dose of 10, 30 and 100 μg/kg, i.t). 6 hours after LPS instillation, animals were exsanguinated under anaesthesia, and then trachea were cannulated and the lungs were lavaged with 5-ml aliquots of heparinised PBS (1 unit/ml) four times through tracheal cannula (total volume 20 ml). BAL (bronchoalveolar lavage) fluid was stored at 2-8° C. until assayed for total cell and differential leukocyte count. Bronchioalveolar fluid was centrifuged (500×g for 10 minutes) and the resulting cell pellet was resuspended in 0.5 ml of heparinized saline. The total number of white blood cells were determined in BAL fluid using a blood cell counter and were adjusted to 1×10^6 cell/ml. Differential cell count was calculated manually. One hundred microliters of the cell suspension was centrifuged using cytospin 3 to prepare a cell smear. The cell smear was stained with a blood staining solution for differentiation and slides were microscopically observed to identify eosinophil according to their morphological characteristics. The number of each cell type among 300 white blood cells in the cell smear was determined and expressed as a percentage. The total number of neutrophils in each BAL fluid was calculated.
Roflumilast and roflumilast N-oxide were administered intratracheally (i.t) at doses of 100, 30, and 10 μg/kg as 1:200; 1:500; and 1:1000 drug:lactose blends, respectively.

The subject of test [2] is neutrophil infiltration. The experiment in a line: Acute cigarette smoke induced cell infiltration, neutrophils. In kind it is in vivo, female Balb/c mice. As to conditions: for Percent inhibition in neutrophil infiltration: intranasal, day 1 to day 4. As to the method:
Animals were acclimatized for seven days prior to the start of the experiment. The animals were randomly distributed to various groups based on their body weight. For oral administration of roflumilast and for intranasal administration of roflumilast N-oxide, roflumilast or roflumilast N-oxide were prepared as a suspension in a suitable vehicle. On day 1, mice were administered roflumilast N-oxide or roflumilast and after 1 hour, the animals were placed in a whole body exposure box. On day 1 and day 2, the mice were exposed to the mainstream smoke of 6 cigarettes, and 8 cigarettes on day 3 and day 4. Exposure to the smoke of each cigarette lasted for 10 minutes (cigarettes were completely burned in the first two minutes and followed by an air flow with animal ventilator, then 20 minutes exposure to fresh room air). After every second cigarette an additional break of 20 minutes with exposure to fresh room air was conducted. Control animals were exposed to room air chamber. From day 1 to day 4, the animals were administered roflumilast N-oxide or roflumilast. On day 5, 24 hours after the last cigarette smoke (CS) exposure, the animals were exsanguinated under anaesthesia, the trachea were cannulated and the lungs were lavaged with 0.5-ml aliquots of heparinised PBS (1 unit/ml) four times through tracheal cannula (total volume 2 ml). Bronchioalveolar (BAL) collected was stored at 2-8° C. until assayed for total cell and differential leukocyte count. BAL fluid was centrifuged (500×g for 10 minutes) and the resulting cell pellet was resuspended in 0.5 ml of heparinised saline. The total number of white blood cells was determined in BAL fluid and adjusted to 1×10^6 cell/ml. Differential cell count was calculated manually by diff-quick staining. Forty microliters of the cell suspension was centrifuged using cytospin 3 to prepare a cell smear. The cell smear was stained with a blood staining solution for differentiation and microscopically observed to identify cell type according to their morphological characteristics. The number of each cell type among 300 white blood cells in the cell smear were determined and expressed as a percentage, and the number of neutrophils and macrophages in each BAL fluid were calculated.
Roflumilast and roflumilast N-oxide as a suspension in polysorbate 80 (1% v/v) and methyl cellulose (MC) (0.5% w/v) were used for oral and intranasal administration respectively.

Read-outs that look alike come from different tables or passages of the source.

In the case of `O=C(Nc1c(Cl)c[n+]([O-])cc1Cl)c1ccc(OC(F)F)c(OCC2CC2)c1` [Roflumilast N-oxide], the ED50 in test [1] (Intratracheal (Table 5), read-out: ED50 in Lipopolysaccharide induced pulmonary neutrophilia in female Sprague-Dawley rat model) stood at 0.027 mg/kg; in test [1] (intratracheal administration, read-out: 50% inhibition (ED50) dose, neutrophil infiltration) it was 0.027 mg/kg; in test [2] (Mus musculus, Neutrophil, inhaled or nasal, intranasal administration, read-out: 50% inhibition (ED50) dose, neutrophil infiltration), 0.038 mg/kg. Further, the “Percent inhibition in neutrophil infiltration” value in test [1] (10 μg/kg) worked out at 37.52%; in test [1] (30 μg/kg), 49.66%; in test [1] (100 μg/kg), 69.48%; in test [2] (0.003 mg/kg) it was 26.60%; in test [2] (0.03 mg/kg) it was 59.28%; in test [2] (0.3 mg/kg), 66.49%. The “Percent inhibition in neutrophil infiltration” value in test [2] (3 mg/kg) worked out at 72.08%.
